Reference: patent publication US20230286973A1, “PROTEIN SECRETION INHIBITORS” (KEZAR LIFE SCIENCES, priority 2020, published 2023)
pEC50, pIC50: −log10 of the molar value.

Columns and labels:
[1] = test system: multiple myeloma cell line U266B1; assay: U266 Cell Viability Assay; format: cell-based, human; conditions: Homo sapiens, U-266, 48 h, U266B1 cells, Celltiter-Glo
How it was run: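 Viability is measured as luciferase signal from CellTiter-Glo following a 48-hour incubation with compound at 37° C. under 5% CO2. Where structures lack drawn stereochemistry, values refer to stereoisomer mixtures.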

[2] = test system: PD1-ss+10aa/Gaussia Luciferase; assay: Dox-Induced PD1-ss-Gluc Assay; format: cell-based; conditions: 24 hr Dox induction; 293FRT/TO cells; read-out: 24 hr Dox Inducible PD1ssGluc 293FRT/TO: Mean IC50
How it was run: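 Flp-In 293 T-REx cells stably carrying a doxycycline-inducible Gaussia luciferase fused to the PD1 signal sequence plus 10 aa were plated the day before. Compound dilutions in DMSO/media containing doxycycline were then added and incubated at 37 °C, 5% CO2. Data for undefined stereochemistry refer to stereoisomer mixtures.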

[3] = Liver Microsome Stability Assay (monkey); conditions: monkey liver microsomes, with NADPH, 1.0 uM compound
Description: (§1) Stability of a compound was assessed in the presence of liver microsomes from various sources—mouse, rat, monkey and human liver microsomes. 1.0 uM compound, 0.4% DMSO in 0.1 M Potassium Phosphate with 1.0 mg/mL liver microsomes, were incubated at 37° C. with or without 1 mM NADPH. The samples were quenched at 0, and 30 minutes.

[4] = Liver Microsome Stability Assay (mouse); conditions: mouse liver microsomes, with NADPH, 1.0 uM compound
Description: as §1

[5] = test system: IL-2-FL/Gaussia Luciferase; assay: Dox Induced IL2-FL-Gluc Assay; format: cell-based; conditions: for pIC50: 24 hr Dox induction, 293FRT/TO cells, read-out: 24 hr Dox Inducible IL2FLGluc 293FRT/TO: Mean IC50; for 24 hr Dox Inducible IL2FLGluc 293FRT/TO: IL2/PD1: ratio of IL2FLGluc IC50 to PD1ssGluc IC50
How it was run: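 Doxycycline induces an IL-2(1-153)–Gaussia luciferase fusion in a stable Flp-In 293 T-REx line. Compound exposure runs alongside induction at 37° C.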

[6] = test system: HER3-ss+4aa/Gaussia Luciferase; assay: Dox-Induced Her3-ss-Gluc Assay; format: cell-based; conditions: 24 hr Dox induction; 293FRT/TO cells; read-out: 24 hr Dox Inducible Her3(ss + 4)Gluc 293FRT/TO: Mean IC50
How it was run: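 Reporter line: Flp-In 293 T-REx, T-REx-regulated HER3-ss+4aa fused to Gaussia luciferase. Compound co-added with doxycycline after overnight plating, 37° C., 5% CO2.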

[7] = test system: TNFα-FL/Gaussia Luciferase; assay: Dox Induced TNFα-FL-Gluc Assay; format: cell-based; conditions: for pIC50: 24 hr Dox induction, 293FRT/TO cells, read-out: 24 hr Dox Inducible TNFaFLGluc 293FRT/TO: Mean IC50; for 24 hr Dox Inducible TNFaFLGluc 293FRT/TO: TNF/PD1: ratio of TNFaFLGluc IC50 to PD1ssGluc IC50
How it was run: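 Doxycycline-inducible Gaussia luciferase-tagged full-length TNFα (1-233) was expressed in stable Flp-In 293 T-REx cells. Compounds were co-added with doxycycline and incubated at 37 °C, 5% CO2.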

[8] = test system: multiple myeloma cell line NCI-H929; assay: H929 Cell Viability Assay; format: cell-based, human; conditions: Homo sapiens, NCI-H929, 48 h, NCI-H929 cells, Celltiter-Glo
How it was run: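 Viability is scored by CellTiter-Glo luminescence following a 48-hour treatment at 37° C. Data for structures shown without stereochemistry refer to stereoisomer mixtures.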

[9] = Liver Microsome Stability Assay (rat); conditions: rat liver microsomes, with NADPH, 1.0 uM compound
Description: as §1

[10] = Liver Microsome Stability Assay (human); conditions: human liver microsomes, with NADPH, 1.0 uM compound
Description: as §1

pEC50 [1]	pIC50 [2]	Liver Microsome Stability (Multiple Species): Monkey - % Remaining after 30 min w/NADPH [3] [%]	Liver Microsome Stability (Multiple Species): Mouse - % Remaining after 30 min w/NADPH [4] [%]	pIC50 [5]	pIC50 [6]	pIC50 [7]	pEC50 [8]	Liver Microsome Stability (Multiple Species): Rat - % Remaining after 30 min w/NADPH [9] [%]	Liver Microsome Stability (Multiple Species): Human - % Remaining after 30 min w/NADPH [10] [%]	SMILES	24 hr Dox Inducible IL2FLGluc 293FRT/TO: IL2/PD1 [5]	24 hr Dox Inducible TNFaFLGluc 293FRT/TO: TNF/PD1 [7]
< 4.60	6.53	0.03	0.16	< 4.60	< 4.60	< 4.60	< 4.60	0.1	0.03	O=C(Nc1nc(/C=C/c2cn3c(n2)CCC3)cs1)c1cccn1Cc1ccncc1 [Compound B71, (E)-N-(4-(2-(6,7-dihydro-5H-pyrrolo[1,2-a]imidazol-2-yl)vinyl)thiazol-2-yl)-1-(pyridin-4-ylmethyl)-1H-pyrrole-2-carboxamide]	>84	>83.9
< 4.60	5.15	0.06	0.03	< 4.60	4.97	< 4.60	< 4.60	0.16	0.95	CC(C)c1nc(/C=C/c2csc(NC(=O)c3cccn3Cc3ccncc3)n2)cn1C [Compound B72, (E)-N-(4-(2-(2-isopropyl-1-methyl-1H-imidazol-4-yl)vinyl)thiazol-2-yl)-1-(pyridin-4-ylmethyl)-1H-pyrrole-2-carboxamide]	>3.5	>3.50

The remaining lines, values behind:

SMILES	pEC50 [1]	pIC50 [2]	Liver Microsome Stability (Multiple Species): Monkey - % Remaining after 30 min w/NADPH [3] [%]	Liver Microsome Stability (Multiple Species): Mouse - % Remaining after 30 min w/NADPH [4] [%]	pIC50 [5]	pIC50 [6]	pIC50 [7]	pEC50 [8]	Liver Microsome Stability (Multiple Species): Rat - % Remaining after 30 min w/NADPH [9] [%]	Liver Microsome Stability (Multiple Species): Human - % Remaining after 30 min w/NADPH [10] [%]	24 hr Dox Inducible IL2FLGluc 293FRT/TO: IL2/PD1 [5]	24 hr Dox Inducible TNFaFLGluc 293FRT/TO: TNF/PD1 [7]
CC(C)n1cnc(/C=C/c2csc(NC(=O)c3cccn3Cc3cc(F)nc(F)c3)n2)c1 [Compound B68, (E)-1-((2,6-difluoropyridin-4-yl)methyl)-N-(4-(2-(1-isopropyl-1H-imidazol-4-yl)vinyl)thiazol-2-yl)-1H-pyrrole-2-carboxamide]	4.84	6.46	0.07	14	< 4.60	4.74	< 4.60	5.00	19.9	0.5	>72	>71.9
CCn1cnc(/C=C/c2csc(NC(=O)c3cccn3Cc3ccncc3)n2)c1 [Compound B69, (E)-N-(4-(2-(1-ethyl-1H-imidazol-4-yl)vinyl)thiazol-2-yl)-1-(pyridin-4-ylmethyl)-1H-pyrrole-2-carboxamide]	< 4.60	6.92	0.04	0.32	< 4.60	< 4.60	< 4.60	< 4.60	0.28	0.01	>210	>209
Cc1cccc2nc(/C=C/c3csc(NC(=O)c4cccn4Cc4ccnc(F)c4)n3)cn12 [Compound B70, (E)-1-((2-fluoropyridin-4-yl)methyl)-N-(4-(2-(5-methylimidazo[1,2-a]pyridin-2-yl)vinyl)thiazol-2-yl)-1H-pyrrole-2-carboxamide]	< 4.60	6.30	0.19	2.19	< 4.60	< 4.60	< 4.60	< 4.60	1.37	0.35	>50	>50.1
